Paper PMC4721923 (PLoS ONE, 2015)
“And” between values parts separate entries of the source, which are not always exact repeats. Equal entries are not always repeated. Where two headings read alike, the source gives them in different places.

What was measured:
OCT1 [1] = molecular target: T1, OCT1 (Homo sapiens, UniProt O15245); design: method as in PMID 15389554; conditions: microtiter assay; cited from earlier work
T1 construct: containing the full length SLC22A1 cDNA (NM_003057) encoding the human OCT1 protein; expressed in transfected cells
T1 sequence (O15245 1-554): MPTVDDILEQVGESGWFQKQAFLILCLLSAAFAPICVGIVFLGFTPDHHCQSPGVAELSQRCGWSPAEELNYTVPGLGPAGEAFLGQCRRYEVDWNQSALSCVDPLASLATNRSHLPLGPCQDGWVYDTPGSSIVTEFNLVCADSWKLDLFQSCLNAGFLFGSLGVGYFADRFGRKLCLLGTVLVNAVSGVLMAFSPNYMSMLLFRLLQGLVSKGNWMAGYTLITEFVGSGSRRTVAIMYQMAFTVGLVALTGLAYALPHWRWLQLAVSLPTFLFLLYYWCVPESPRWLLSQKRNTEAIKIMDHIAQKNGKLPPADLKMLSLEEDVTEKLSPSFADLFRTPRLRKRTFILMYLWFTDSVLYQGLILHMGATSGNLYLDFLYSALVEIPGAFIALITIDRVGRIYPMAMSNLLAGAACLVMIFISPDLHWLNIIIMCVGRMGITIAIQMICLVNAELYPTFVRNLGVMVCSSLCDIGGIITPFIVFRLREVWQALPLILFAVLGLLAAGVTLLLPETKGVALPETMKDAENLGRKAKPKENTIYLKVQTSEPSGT

OCT3 [2] = molecular target: T2, OCT3 (Homo sapiens, UniProt O75751); assay: Flow cytometric ASP+-uptake inhibition, HEK-OCT3; assay type: cell-based; conditions: HEK-OCT3; 1 μM ASP+; ± SEM (N = 3); read-out: IC50, inhibition of ASP+-uptake
T2 construct: expressed in transfected cells; host or cells: HEK293 (HEK-OCT3)
T2 sequence (O75751 1-556): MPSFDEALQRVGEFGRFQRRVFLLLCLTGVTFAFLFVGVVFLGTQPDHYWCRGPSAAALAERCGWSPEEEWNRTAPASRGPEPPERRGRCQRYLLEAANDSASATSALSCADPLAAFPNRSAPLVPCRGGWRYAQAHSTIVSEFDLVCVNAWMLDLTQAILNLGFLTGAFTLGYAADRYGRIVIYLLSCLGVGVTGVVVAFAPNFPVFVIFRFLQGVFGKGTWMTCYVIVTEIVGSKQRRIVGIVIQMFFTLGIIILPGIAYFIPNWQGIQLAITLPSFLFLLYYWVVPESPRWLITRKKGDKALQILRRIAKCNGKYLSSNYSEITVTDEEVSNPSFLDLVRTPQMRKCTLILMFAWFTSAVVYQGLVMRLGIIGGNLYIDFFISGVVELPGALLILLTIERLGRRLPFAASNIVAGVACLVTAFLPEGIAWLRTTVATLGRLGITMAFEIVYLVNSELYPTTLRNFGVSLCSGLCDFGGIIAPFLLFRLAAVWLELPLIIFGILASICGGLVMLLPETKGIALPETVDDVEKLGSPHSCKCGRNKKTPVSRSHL
Protocol: (§1) The previously described fluorescent substrate of organic cation transporters, 4-(4-dimethylaminostyryl)-N-methylpyridinium (ASP^+), was used to determine the function of OCT1 and OCT3 by flow cytometry in the absence and the presence of bendamustine and selected bendamustine esters. HEK293 cells expressing the transporter of interest were trypsinized and washed twice with PBS, prior to re-suspension of 0.5 · 10^6 cells in 500 μL of PBS containing 2% (v/v) FCS. The cells were incubated with ASP^+ (100 μM stock solution in PBS containing 10% DMSO) for 5 minutes, allowing for cellular accumulation, and subsequently analyzed with a FACSCalibur flow cytometer. ASP^+ was excited at 488 nm and the fluorescence was measured using a 530/30 nm and a 585/42 band-pass filter. At least 1 · 10^4 single cells were analyzed by appropriate FSC/SSC gating.
(§2) The cells were pre-incubated with the respective test compound at different concentrations at room temperature for 10 minutes. Afterwards, ASP^+ was added to a final concentration of 1 μM, and the samples were incubated at 37°C in the dark for 5 minutes. Subsequently, the cells were washed, re-suspended in ice-cold PBS/FCS and stored on ice in the dark until measurement.
(§3) The normalized mean fluorescence intensities of the OCT expressing cells, set to 100% in the absence of an inhibitor, were calculated by subtracting the mean fluorescence intensity of unspecific ASP^+ uptake into HEK-Co control cells. The normalized fluorescence intensities in the presence of an inhibitor were plotted against the logarithm of the concentrations of the test compounds to calculate IC50 values. The “log (inhibitor) vs. normalized response-variable slope” equation of GraphPad Prism 5.01 was used for this purpose.

OCT3 [3] = molecular target: T2, OCT3; assay: Confocal laser scanning microscopy of ASP+ uptake, HEK-OCT3; assay type: cell-based; conditions: compound 5 15 μM; TPA 200 μM; ASP+ 1 μM
Protocol: (§4) HEK-Co, HEK-OCT1 and HEK-OCT3 cells were seeded into 8-well μ-Slides (Ibidi, Munich, Germany) (2 · 10^4 cells/well) and allowed to attach for 48 hours. Prior to the staining procedure, the medium was replaced by PBS and the DNA probe Draq5 (5 μM) (Biostatus, Shepshed, UK) was added to each well. […] Subsequently, ASP^+ was added to reach a concentration of 1 μM, and the cells were incubated for 5 minutes in the dark. Imaging was performed with an Axiovert 200 M confocal microscope coupled to a Zeiss LSM 510 scanning device (Carl Zeiss, Oberkochen, Germany) using a Plan-Apochromat 63x/1.40 oil immersion objective. Draq5 was excited at 633 nm and fluorescence was detected using a 650 nm long-pass filter, ASP^+ was excited at 488 nm and detected using a 565/35 nm band-pass filter.

OCT1 [4] = molecular target: T1, OCT1; assay: Confocal laser scanning microscopy of ASP+ uptake, HEK-OCT1; assay type: cell-based; conditions: compound 5 15 μM; TPA 200 μM; ASP+ 1 μM
Protocol: as §4

OCT3 [5] = tested on: OCT3; design: method as in PMID 23982114; conditions: microtiter assay; cited from earlier work
OCT1 [6] = molecular target: T1, OCT1; assay: Flow cytometric ASP+-uptake inhibition, HEK-OCT1; assay type: cell-based; conditions: HEK-OCT1; 1 μM ASP+; ± SEM (N = 3); read-out: IC50, inhibition of ASP+-uptake
Protocol: as §1, §2, §3

OCT1 [7] = conditions: cited from earlier work
OCT3 [8] = tested on: OCT3; design: method as in PMID 23506881; conditions: cited from earlier work

CCCCC[N+](CCCCC)(CCCCC)CCCCC [TPA, tetrapentyl ammonium, reference compound]
IC50 (OCT1 [1]): 7.9 µM
IC50 (OCT3 [2]): 19.9 ± 2.2 µM
effect on OCT3 activity (ASP+ uptake, imaging) (OCT3 [3]): inhibited
effect on OCT1 activity (ASP+ uptake, imaging) (OCT1 [4]): inhibited
IC50 (OCT3 [5]): 28 µM
IC50 (OCT1 [6]): 6.04 µM and 6 µM

N.N.[Cl][Pt][Cl] [cisplatin]
IC50 (OCT1 [7]): > 100 µM

O=C1c2c(O)ccc(O)c2C(=O)c2c(NCCNCCO)ccc(NCCNCCO)c21 [mitoxantrone]
IC50 (OCT3 [8]): 440 µM
